# Reference: patent US8148388B2, “2,4 (4,6) pyrimidine derivatives” (Janssen Pharmaceutica, N.V., priority 2004, dated 2012)
# Experiments:
# Type in all cases: biochemical
# cSRC (h) = cSRC (h) (Homo sapiens, UniProt P12931); assay: cSRC human kinase assay (glass-fiber filter); conditions: test concentration of 10^−6M; for inhibition at 1 µM: read-out: C3 score (inhibition of cSRC human)
# Method: (§1) The in vitro inhibition of a panel of kinases was assessed using either the glass-fiber filter technology as described by Davies, S. P. et al., Biochem J. […] In the glass-fiber filter technology the activity of the kinase of interest is measured using an appropriate substrate that is incubated with the aforementioned kinase protein in the presence of (^33P) radiolabeled ATP. (^33P) Phosphorylation of the substrate is subsequently measured as radioactivity bound on a glass fiber-filter. All kinases are pre-diluted to a 10× working concentration prior to addition into the assay. The composition of the dilution buffer for each kinase is detailed below. […] The reaction is initiated by the addition of the MgATP mix. […] 10 μl of the reaction is then spotted onto a P30 filtermat and washed three times for 5 minutes in 75 mM phosphoric acid and once in methanol prior to drying and scintillation counting.
# Lyn (h) = Lyn (h) (Homo sapiens, UniProt P07948); assay: Lyn human kinase assay (glass-fiber filter); conditions: test concentration of 10^−6M; for inhibition at 1 µM: read-out: C10 score (inhibition of Lyn human)
# Method: (§2) In the glass-fiber filter technology the activity of the kinase of interest is measured using an appropriate substrate that is incubated with the aforementioned kinase protein in the presence of (^33P) radiolabeled ATP. (^33P) Phosphorylation of the substrate is subsequently measured as radioactivity bound on a glass fiber-filter.
# (§3) All kinases are pre-diluted to a 10× working concentration prior to addition into the assay. The composition of the dilution buffer for each kinase is detailed below.
# (§4) In a final reaction volume of 25 Lyn (h) (5-10 mU) is incubated with 50 mM Tris pH 7.5, 0.1 mM EGTA, 0.1 mM Na3VO4, 0.1% O-mercaptoethanol, 0.1 mg/ml poly(Glu, Tyr) 4:1, 10 mM MgAcetate and [γ-^33P-ATP] (specific activity approx. 500 cpm/pmol, concentration as required). The reaction is initiated by the addition of the MgATP mix. After incubation for 40 minutes at room temperature, the reaction is stopped by the addition of 5 μl of a 3% phosphoric acid solution. 10 μl of the reaction is then spotted onto a Filtennat A and washed three times for 5 minutes in 75 mM phosphoric acid and once in methanol prior to drying and scintillation counting.
# Fms (h) = Fms (h) (Homo sapiens, UniProt P07333); assay: Fms human kinase assay (glass-fiber filter); conditions: test concentration of 10^−6M; read-out: C7 score (inhibition of Fms human)
# Method: (§5) The in vitro inhibition of a panel of kinases was assessed using either the glass-fiber filter technology as described by Davies, S. P. et al., Biochem J. (2000), 351; p. 95-105.
# as §2, §3
# as §4, with “25 μl, Fms” for “25 Lyn”, “with 8” for “with 50”, “mM MOPS” for “mM Tris”, “pH 7.0, 0.2” for “pH 7.5, 0.1”, “mM EDTA, 250 μM […],” for “mM EGTA, 0.1 mM Na3VO4, 0.1% O-mercaptoethanol, 0.1 mg/ml poly(Glu, Tyr) 4:1,”, “a P30 filtermat” for “a Filtennat A”
# Fes (h) = Fes (h) (Homo sapiens, UniProt P07332); assay: Fes human kinase assay (glass-fiber filter); conditions: test concentration of 10^−6M; for inhibition at 1 µM: read-out: C4 score (inhibition of Fes human)
# Method: as §2, §3
# as §4, with “25 μl, Fes” for “25 Lyn”, “with 8” for “with 50”, “mM MOPS” for “mM Tris”, “pH 7.0, 0.2” for “pH 7.5, 0.1”, “mM EDTA,” for “mM EGTA, 0.1 mM Na3VO4, 0.1% O-mercaptoethanol,”, “a Filtermat” for “a Filtennat”
# Lck (h) = Lck (h) (Homo sapiens, UniProt P06239); assay: Lck human kinase assay (glass-fiber filter); conditions: test concentration of 10^−6M; for inhibition at 1 µM: read-out: C9 score (inhibition of Lck human)
# Method: as §1, with “below. [table]” for “below.”
# Flt3 (h) = Flt3 (h) (Homo sapiens, UniProt P36888); assay: Flt3 human kinase assay (glass-fiber filter); conditions: test concentration of 10^−6M; for inhibition at 1 µM: read-out: C6 score (inhibition of Flt3 human)
# Method: as §5, §2, §3
# as §4, with “μl, Flt3” for “Lyn”, “with 8 mM MOPS pH 7.0, 0.2 mM EDTA,” for “with”, “μM […],” for “mM Tris pH 7.5, 0.1 mM EGTA, 0.1 mM Na3VO4, 0.1% O-mercaptoethanol, 0.1 mg/ml poly(Glu, Tyr) 4:1,”, “P30 filtermat” for “Filtennat A”
# Yes (h) = Yes (h) (Homo sapiens, UniProt P07947); assay: Yes human kinase assay (glass-fiber filter); conditions: test concentration of 10^−6M; for inhibition at 1 µM: read-out: C11 score (inhibition of Yes human)
# Method: as §2, §3
# (§6) In a final reaction volume of 25 μl, Yes (h) (5-10 mU) is incubated with 8 mM MOPS pH 7.0, 0.2 mM EDTA, 0.1 mg/ml poly(Glu, Tyr) 4:1, 10 mM MgAcetate and [γ-^33P-ATP] (specific activity approx. 500 cpm/μmol, concentration as required). The reaction is initiated by the addition of the MgATP mix. After incubation for 40 minutes at room temperature, the reaction is stopped by the addition of 5 μl of a 3% phosphoric acid solution. 10 μl of the reaction is then spotted onto a Filtermat A and washed three times for 5 minutes in 75 mM phosphoric acid and once in methanol prior to drying and scintillation counting.
# GSK3B (h) = GSK3B (h) (Homo sapiens, UniProt P49841); assay: GSK3β human kinase assay (glass-fiber filter); conditions: test concentration of 10^−6M; for inhibition at 1 µM: read-out: C8 score (inhibition of GSK3β human)
# Method: as §5, §2, §3
# as §6, with “GSK3B” for “Yes”, “20 μM […](p)EDEEE (phospho GS2 peptide),” for “0.1 mg/ml poly(Glu, Tyr) 4:1,”, “cpm/pmol,” for “cpm/μmol,”, “P30 filtermat” for “Filtermat A”, “50” for “75”
# Abl (h) = Abl (h) (Homo sapiens, UniProt P00519); assay: Abl human kinase assay (glass-fiber filter); conditions: test concentration of 10^−6M; for inhibition at 1 µM: read-out: C1 score (inhibition of Abl human)
# Method: as §2, §3
# (specific activity approx. 500 cpm/pmol, concentration as required). The reaction is initiated by the addition of the MgATP mix. After incubation for 40 minutes at room temperature, the reaction is stopped by the addition of 5 μl of a 3% phosphoric acid solution. 10 μl of the reaction is then spotted onto a P30 filtermat and washed three times for 5 minutes in 75 mM phosphoric acid and once in methanol prior to drying and scintillation counting.
# EGFR (h) = EGFR (h) (Homo sapiens, UniProt P00533); assay: EGFR human kinase assay (glass-fiber filter); conditions: test concentration of 10^−6M; for inhibition at 1 µM: read-out: C4 score (inhibition of EGFR human)
# Method: as §2, §3
# as §6, with “EGFR” for “Yes”, “EDTA, 10 mM MnCl2,” for “EDTA,”, “cpm/pmol,” for “cpm/μmol,”
# Abl (h), sequence (P00519 whole entry): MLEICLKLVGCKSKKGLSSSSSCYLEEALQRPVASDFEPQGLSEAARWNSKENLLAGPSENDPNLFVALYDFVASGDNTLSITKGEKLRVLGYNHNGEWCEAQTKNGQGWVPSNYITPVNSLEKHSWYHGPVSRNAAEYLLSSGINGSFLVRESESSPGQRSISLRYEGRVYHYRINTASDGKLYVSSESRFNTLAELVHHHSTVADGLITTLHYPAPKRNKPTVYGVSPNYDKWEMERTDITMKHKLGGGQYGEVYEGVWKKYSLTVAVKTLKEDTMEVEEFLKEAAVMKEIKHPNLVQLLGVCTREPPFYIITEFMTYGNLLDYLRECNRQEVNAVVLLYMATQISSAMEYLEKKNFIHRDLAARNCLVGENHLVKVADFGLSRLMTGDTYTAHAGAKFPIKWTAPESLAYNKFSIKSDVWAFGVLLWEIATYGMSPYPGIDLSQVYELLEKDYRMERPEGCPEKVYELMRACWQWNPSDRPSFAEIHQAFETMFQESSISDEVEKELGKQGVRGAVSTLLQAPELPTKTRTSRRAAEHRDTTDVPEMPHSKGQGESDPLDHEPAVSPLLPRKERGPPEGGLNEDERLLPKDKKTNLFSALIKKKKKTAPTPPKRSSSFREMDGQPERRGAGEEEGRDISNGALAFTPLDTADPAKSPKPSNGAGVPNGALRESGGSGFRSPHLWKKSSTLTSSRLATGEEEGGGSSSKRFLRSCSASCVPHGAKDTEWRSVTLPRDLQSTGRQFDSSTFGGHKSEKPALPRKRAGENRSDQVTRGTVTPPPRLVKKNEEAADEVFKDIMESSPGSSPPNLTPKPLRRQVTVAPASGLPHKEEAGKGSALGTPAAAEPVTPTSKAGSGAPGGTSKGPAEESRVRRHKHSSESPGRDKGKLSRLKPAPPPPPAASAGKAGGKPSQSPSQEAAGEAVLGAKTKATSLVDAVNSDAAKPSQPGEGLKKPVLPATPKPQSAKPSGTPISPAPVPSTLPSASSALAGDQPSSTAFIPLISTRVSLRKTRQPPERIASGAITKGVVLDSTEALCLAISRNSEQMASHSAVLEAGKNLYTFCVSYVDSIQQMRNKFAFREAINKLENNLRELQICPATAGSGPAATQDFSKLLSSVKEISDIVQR
# cSRC (h), sequence (P12931 whole entry): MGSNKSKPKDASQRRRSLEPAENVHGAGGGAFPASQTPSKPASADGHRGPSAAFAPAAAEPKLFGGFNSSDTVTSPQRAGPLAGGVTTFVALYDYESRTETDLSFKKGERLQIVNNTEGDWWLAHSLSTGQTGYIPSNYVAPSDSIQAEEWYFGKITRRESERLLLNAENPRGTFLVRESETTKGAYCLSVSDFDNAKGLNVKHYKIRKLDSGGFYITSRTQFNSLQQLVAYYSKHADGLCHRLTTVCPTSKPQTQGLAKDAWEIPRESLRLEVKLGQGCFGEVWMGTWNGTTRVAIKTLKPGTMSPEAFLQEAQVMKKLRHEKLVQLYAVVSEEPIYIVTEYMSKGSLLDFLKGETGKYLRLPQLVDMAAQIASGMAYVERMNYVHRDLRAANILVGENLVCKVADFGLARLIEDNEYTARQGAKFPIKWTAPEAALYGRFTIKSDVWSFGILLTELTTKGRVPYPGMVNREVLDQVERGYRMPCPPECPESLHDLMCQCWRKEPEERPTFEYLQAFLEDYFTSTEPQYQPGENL
# EGFR (h), sequence (P00533 25-1210): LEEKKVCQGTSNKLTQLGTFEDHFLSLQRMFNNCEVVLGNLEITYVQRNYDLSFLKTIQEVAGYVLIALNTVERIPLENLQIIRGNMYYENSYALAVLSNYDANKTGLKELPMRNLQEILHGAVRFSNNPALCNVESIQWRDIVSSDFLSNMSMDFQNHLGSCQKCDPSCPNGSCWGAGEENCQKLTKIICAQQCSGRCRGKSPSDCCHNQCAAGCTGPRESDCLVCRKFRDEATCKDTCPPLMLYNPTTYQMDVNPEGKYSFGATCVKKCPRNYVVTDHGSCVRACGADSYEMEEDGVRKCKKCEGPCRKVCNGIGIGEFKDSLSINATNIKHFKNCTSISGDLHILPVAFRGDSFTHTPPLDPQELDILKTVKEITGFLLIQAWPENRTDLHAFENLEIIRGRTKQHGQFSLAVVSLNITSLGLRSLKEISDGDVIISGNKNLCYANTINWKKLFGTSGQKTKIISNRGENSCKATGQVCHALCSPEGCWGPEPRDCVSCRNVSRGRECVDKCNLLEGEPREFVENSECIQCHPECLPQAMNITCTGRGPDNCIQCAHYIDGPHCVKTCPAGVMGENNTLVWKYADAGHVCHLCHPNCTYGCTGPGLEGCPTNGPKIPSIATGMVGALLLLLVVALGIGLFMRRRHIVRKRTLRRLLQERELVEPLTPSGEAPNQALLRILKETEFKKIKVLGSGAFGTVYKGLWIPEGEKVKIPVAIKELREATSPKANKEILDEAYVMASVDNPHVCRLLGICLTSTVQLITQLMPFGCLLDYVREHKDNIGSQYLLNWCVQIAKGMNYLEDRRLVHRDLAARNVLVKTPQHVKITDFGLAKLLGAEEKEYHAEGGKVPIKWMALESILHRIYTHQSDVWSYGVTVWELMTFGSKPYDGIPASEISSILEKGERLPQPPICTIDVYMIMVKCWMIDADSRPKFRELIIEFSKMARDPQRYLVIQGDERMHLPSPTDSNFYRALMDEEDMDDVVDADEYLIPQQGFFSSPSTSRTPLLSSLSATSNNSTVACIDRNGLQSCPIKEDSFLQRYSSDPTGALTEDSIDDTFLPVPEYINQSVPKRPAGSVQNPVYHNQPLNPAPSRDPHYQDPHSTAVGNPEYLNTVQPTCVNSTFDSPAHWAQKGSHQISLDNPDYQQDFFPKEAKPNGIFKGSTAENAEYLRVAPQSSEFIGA
# GSK3B (h), sequence (P49841 whole entry): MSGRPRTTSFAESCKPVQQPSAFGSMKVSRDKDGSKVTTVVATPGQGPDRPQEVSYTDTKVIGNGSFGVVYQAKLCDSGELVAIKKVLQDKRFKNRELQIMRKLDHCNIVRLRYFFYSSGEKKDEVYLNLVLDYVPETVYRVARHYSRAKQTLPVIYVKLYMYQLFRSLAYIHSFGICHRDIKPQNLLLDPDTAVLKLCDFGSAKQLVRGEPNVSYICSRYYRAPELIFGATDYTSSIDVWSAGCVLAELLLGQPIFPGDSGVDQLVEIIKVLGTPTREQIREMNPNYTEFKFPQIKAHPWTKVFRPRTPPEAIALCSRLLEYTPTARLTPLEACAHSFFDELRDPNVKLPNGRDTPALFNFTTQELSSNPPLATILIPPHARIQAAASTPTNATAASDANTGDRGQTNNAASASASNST
# Fms (h), sequence (P07333 20-972): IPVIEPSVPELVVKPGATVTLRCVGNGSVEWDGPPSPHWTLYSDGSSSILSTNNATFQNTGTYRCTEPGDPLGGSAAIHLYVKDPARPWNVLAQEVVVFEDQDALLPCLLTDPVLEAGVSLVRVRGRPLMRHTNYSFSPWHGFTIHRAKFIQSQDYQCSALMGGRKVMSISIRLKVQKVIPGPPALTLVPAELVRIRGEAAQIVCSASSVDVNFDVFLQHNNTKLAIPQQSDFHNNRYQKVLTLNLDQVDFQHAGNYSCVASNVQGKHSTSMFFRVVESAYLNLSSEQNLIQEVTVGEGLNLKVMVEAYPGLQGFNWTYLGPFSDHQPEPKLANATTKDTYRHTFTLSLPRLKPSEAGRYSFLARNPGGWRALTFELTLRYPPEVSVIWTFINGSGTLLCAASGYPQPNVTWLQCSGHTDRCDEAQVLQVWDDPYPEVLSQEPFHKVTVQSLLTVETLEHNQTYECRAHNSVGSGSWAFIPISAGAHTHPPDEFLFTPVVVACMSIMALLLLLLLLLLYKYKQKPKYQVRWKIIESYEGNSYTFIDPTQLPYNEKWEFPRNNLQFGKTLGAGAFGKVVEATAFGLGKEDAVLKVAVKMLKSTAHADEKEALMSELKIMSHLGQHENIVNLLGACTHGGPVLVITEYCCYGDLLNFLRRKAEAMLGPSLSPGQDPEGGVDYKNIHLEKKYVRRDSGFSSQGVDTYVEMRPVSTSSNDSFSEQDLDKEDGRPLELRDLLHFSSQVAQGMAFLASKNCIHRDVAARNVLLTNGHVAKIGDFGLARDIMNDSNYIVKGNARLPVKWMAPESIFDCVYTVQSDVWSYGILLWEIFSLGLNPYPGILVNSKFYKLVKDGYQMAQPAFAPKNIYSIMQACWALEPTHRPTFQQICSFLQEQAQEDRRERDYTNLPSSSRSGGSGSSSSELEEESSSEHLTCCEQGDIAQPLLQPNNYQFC
# Yes (h), sequence (P07947 whole entry): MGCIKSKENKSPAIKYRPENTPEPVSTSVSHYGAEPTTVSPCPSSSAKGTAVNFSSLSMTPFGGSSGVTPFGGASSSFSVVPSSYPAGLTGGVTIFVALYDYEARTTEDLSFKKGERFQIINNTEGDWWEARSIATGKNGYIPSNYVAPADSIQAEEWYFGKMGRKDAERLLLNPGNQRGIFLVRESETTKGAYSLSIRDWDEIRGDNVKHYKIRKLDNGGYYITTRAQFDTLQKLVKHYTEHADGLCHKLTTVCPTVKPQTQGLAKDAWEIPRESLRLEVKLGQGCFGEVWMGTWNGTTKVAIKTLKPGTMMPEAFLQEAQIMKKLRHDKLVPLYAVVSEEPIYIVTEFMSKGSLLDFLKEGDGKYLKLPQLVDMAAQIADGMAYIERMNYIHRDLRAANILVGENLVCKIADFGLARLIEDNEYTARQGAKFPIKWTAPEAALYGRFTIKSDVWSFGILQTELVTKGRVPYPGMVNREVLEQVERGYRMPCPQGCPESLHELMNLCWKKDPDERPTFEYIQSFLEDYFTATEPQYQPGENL
Structure (SMILES),inhibition at 1 µM (cSRC (h)) [%],inhibition at 1 µM (Lyn (h)) [%],inhibition at 1 µM (Fms (h)) [%],inhibition at 1 µM (Fes (h)) [%],inhibition at 1 µM (Lck (h)) [%],inhibition at 1 µM (Flt3 (h)) [%],inhibition at 1 µM (Yes (h)) [%],inhibition at 1 µM (GSK3B (h)) [%],inhibition at 1 µM (Abl (h)) [%],C3 score (inhibition of cSRC human) (cSRC (h)),C10 score (inhibition of Lyn human) (Lyn (h)),C4 score (inhibition of Fes human) (Fes (h)),C9 score (inhibition of Lck human) (Lck (h)),C6 score (inhibition of Flt3 human) (Flt3 (h)),C4 score (inhibition of EGFR human) (EGFR (h)),C11 score (inhibition of Yes human) (Yes (h)),C8 score (inhibition of GSK3β human) (GSK3B (h)),inhibition at 1 µM (EGFR (h)) [%],C1 score (inhibition of Abl human) (Abl (h))
"N#Cc1cnc2nc1Nc1cccc(c1)OCCCCOc1cccc(c1)N2 [Compound 2, 14,19-dioxa-2,4,8,26-tetraazatetracyclo[18.3.1.1˜3,7˜.1˜9,13˜]hexacosa-1(24),3,5,7(26),9,11,13(25),20,22-nonaene-6-carbonitrile]",30 to 60,10 to 30,30 to 60,10 to 30,30 to 60,> 80,30 to 60,60 to 80,10 to 30,,,,,,,,,,
"COc1ccc2cc1OCCCNC(=O)[C@@H]1CCCN1Cc1cc(F)c(Cl)cc1Nc1nc(ncc1C#N)N2 [Compound 6, 21,17-metheno-15,11-nitrilo-1H,16H-pyrrolo[2,1-s][13,1,5,7,17,20]benzoxapentaazacyclotricosine-12-carbonitrile, 8-chloro-7-fluoro-2,3,5,10,23,24,25,26,27,27a-decahydro-20-methoxy-27-oxo-, (27aS)-]",,,,,,,,,,1 (Score 1=10-30% inhibition),1 (Score 1=10-30% inhibition),1 (Score 1=10-30% inhibition),2 (Score 2=30-60% inhibition),2 (Score 2=30-60% inhibition),1 (Score 1=10-30% inhibition),2 (Score 2=30-60% inhibition),2 (Score 2=30-60% inhibition),,
"O=C1NCCCCOc2cccc(c2)Nc2ccnc(n2)Nc2cccc1c2 [Compound 19, 14-oxa-2,4,8,19,27-pentaazatetracyclo[19.3.1.1~3,7~.1~9,13~]heptacosa-1(25),3,5,7(27),9,11,13(26),21,23-nonaen-20-one]",10 to 30,10 to 30,10 to 30,,30 to 60,30 to 60,30 to 60,10 to 30,10 to 30,,,,,,,,,10 to 30,
"N#Cc1cnc2nc1Nc1cccc(c1)OCC(=O)NCCOc1cccc(c1)N2 [Compound 27, 14,20-dioxa-2,4,8,17,27-pentaazatetracyclo[19.3.1.1~3,7~.1~9,13~]heptacosa-1(25),3,5,7(27),9,11,13(26),21,23-nonaene-6-carbonitrile, 16-oxo-]",,10 to 30,30 to 60,10 to 30,30 to 60,60 to 80,10 to 30,30 to 60,10 to 30,,,,,,,,,10 to 30,
"COc1ccc2cc1OCCNC(=O)[C@@H]1CCCN1Cc1cc(F)c(Cl)cc1Nc1nc(ncc1C#N)N2 [Compound 31, 21,17-metheno-15,11-nitrilo-16H-pyrrolo[2,1-r][13,1,5,7,16,19]benzoxapentaazacyclodocosine-12-carbonitrile, 8-chloro-7-fluoro-1,2,3,5,10,23,24,25,26,26a-decahydro-20-methoxy-26-oxo-, (26aS)-]",,,,,,,,,,2 (Score 2=30-60% inhibition),4 (Score 4=>80% inhibition),,3 (Score 3=60-80% inhibition),2 (Score 2=30-60% inhibition),2 (Score 2=30-60% inhibition),4 (Score 4=>80% inhibition),1 (Score 1=10-30% inhibition),,2 (Score 2=30-60% inhibition)
